These are literature values, as cited in paper PMC9088311, “Cyclic Thiosulfonates for Thiol-Mediated Uptake: Cascade Exchangers, Transporters, Inhibitors” (JACS Au, 2022).

The data set has as its system lentivirus with D614G SC2 spike protein, A549 cells overexpressing ACE2 and TMPRSS2. To be noted: 50 μM; cited from earlier work.

Each structure is given as a SMILES string.

On to `O=S1(=O)C[C@H](O)[C@H](O)CS1` (stereo in doubt) [Compound 3, (4S,5R)-4,5-dihydroxy-1,2-dithiane-1,1-dioxide], for which the “inhibition of luciferase expression, thus SC2 lentivector entry” value is reported as “≈ 60%”.
